Laboratory results: patent US20040106802A1, “Novel compounds and therapeutic uses thereof” (TORRENT PHARMACEUTICALS LTD., priority 2002, published 2004)
Counter-ions that a name gives are not always drawn.

Key:
[1] = In-vitro free radical scavenging activity using DPPH free radical; settings: 30° C., 30 minutes, 515 nm
Text: Free Radical Scavenging Activity:
To determine the in-vitro free radical scavenging activity of compounds of general formula-I on 2,2,-diphenyl-1-picrylhydrazyl (DPPH)radical (Ref: W. Brand-Williams, M. E. Cuvelier, C. Berset “Use of a free radical method to evaluate antioxidant activity”, Lebensm.- Wiss.u.Technol.,1995,28,Nr.1:25-30).
To evaluate the free radical scavenging activity of compounds they are allowed to react with stable radical DPPH*. In its radical form, DPPH* absorbed at the characteristic wave length of 515 nm, but upon reduction by an antioxidant or radical scavenger (AH), the absorption disappears.
10^−4M solution of DPPH* was prepared in methanol.
Various concentrations (10 mM, 1 mM, 0.5 mM, 0.25 mM and 0.125 mM) of drug solutions were prepared in methanol.
900 μl of DPPH radical solution was added to an eppendorf tube. To it was added 100 μl of methanol.
900 μl of DPPH radical solution was added to an eppendorf tube. To it was added 100 μl of various concentrations of drug solutions in methanol.
The absorbance of control and test samples was recorded after incubation at 30° C. for 30 minutes, at 515 nm taking methanol as blank.
The percent antioxidant activity was calculated according to the formula:
% Antioxidant activity=100−[O.D of test sample/O.D of control*100]

[2] = molecular target: T1, Porcine DPP-IV (Sus scrofa, UniProt P22411); assay: Assay of DPP-IV enzyme inhibitory activity (spectrophotometric, Gly-Pro-pNA cleavage); assay type: biochemical; settings: Porcine DPP-IV, Gly-Pro-pNA substrate, 30° C.; mean ± SD of three experiments except compound Nos. 133 & 139; read-out: IC50 (μM) Mean ± SD, inhibitory activity on DPP-IV enzyme activity
T1 construct: purchased Sigma-Aldrich Germany
T1 sequence (P22411 whole entry): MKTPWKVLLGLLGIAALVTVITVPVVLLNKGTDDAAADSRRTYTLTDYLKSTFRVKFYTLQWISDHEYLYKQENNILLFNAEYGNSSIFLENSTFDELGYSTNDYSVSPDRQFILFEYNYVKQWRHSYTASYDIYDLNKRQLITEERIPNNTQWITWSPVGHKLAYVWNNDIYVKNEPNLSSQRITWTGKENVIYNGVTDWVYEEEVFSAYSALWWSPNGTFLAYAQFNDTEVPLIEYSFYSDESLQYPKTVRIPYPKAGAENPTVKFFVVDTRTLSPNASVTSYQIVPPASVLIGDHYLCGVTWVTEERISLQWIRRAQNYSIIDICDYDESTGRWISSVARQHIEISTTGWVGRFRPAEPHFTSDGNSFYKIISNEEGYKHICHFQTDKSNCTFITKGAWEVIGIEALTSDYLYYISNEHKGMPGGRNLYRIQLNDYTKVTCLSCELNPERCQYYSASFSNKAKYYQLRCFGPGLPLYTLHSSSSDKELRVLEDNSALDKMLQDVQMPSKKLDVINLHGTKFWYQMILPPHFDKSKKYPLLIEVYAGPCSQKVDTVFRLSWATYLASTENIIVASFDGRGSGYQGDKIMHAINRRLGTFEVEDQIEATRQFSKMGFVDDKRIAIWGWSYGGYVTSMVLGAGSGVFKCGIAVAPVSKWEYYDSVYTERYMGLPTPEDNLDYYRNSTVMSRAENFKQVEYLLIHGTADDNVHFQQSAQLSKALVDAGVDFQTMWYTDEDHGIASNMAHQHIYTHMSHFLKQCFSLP

Row | Compound | % Activity (antioxidant, DPPH) ([1]; Concentration 12.5 μM) [%] | % Activity (antioxidant, DPPH) ([1]; Concentration 25 μM) [%] | % Activity (antioxidant, DPPH) ([1]; Concentration 50 μM) [%] | % Activity (antioxidant, DPPH) ([1]; Concentration 100 μM) [%] | IC50 [2] [µM] | also measured
1 | N#CC1CSCN1C(=O)CN(N)C1CCN(C(=O)N2CCOCC2)CC1.O=C(O)C(F)(F)F (stereo not drawn) [Compound No. 85, 3-[1-oxo-2-[1-(1(morpholinocarbonyl)-piperidin-4-yl)]hydrazino]ethyl-4-cyano-thiazolidine trifluoroacetate] | 15.25 | 30.67 | 49.97 | 67.23 | 0.79 ± 0.072 | 
2 | CC1CCC(N(N)CC(=O)N2CSCC2C#N)CC1.O=C(O)C(F)(F)F (stereo not drawn) [Compound No. 29, 3-[1-Oxo-2-((1-(4-methyl)cyclohexyl)-hydrazino)]ethyl-4-cyano thiazolidine trifluoroacetate] |  |  |  |  | 0.8 ± 0.15 | % Activity (antioxidant, DPPH) ([1]; Concentration 100 μM, 100 µM): 93.70%
3 | N#CC1CSCN1C(=O)CN(N)C1CCC(NCc2ccc(F)cc2)CC1 (stereo not drawn) [Compound No. 93, 3-[1-oxo-2-[1-(1-(4-fluorobenzyl)aminocyclohexan-4-yl)]hydrazino]ethyl-4-cyanothiazolidine bis-trifluoroacetate] | 15.18 | 28.08 | 44.13 | 64.24 | 5.56 ± 0.18 | 
4 | N#CC1CSCN1C(=O)CN(N)C1CCN(CC(=O)Nc2ncc(Br)s2)CC1 (stereo not drawn) [compound 117, 3-[1-oxo-2-(1-(1-(2-oxo-2-(5-bromothiazol-2-yl)aminoethyl)piperidine-4-yl))hydrazino]ethyl-4-cyanothiazolidine, tris-trifluoroacetate] |  |  |  | 53.44 | 0.226 ± 0.005 | 
5 | N#CC1CSCN1C(=O)CN(N)C1CCN(CC(=O)NC23CC4CC(CC(C4)C2)C3)CC1 (stereo not drawn) [Compound No. 103, 3-[1-oxo-2-[1-(1-(2-oxo-2(-adamant-1-yl)aminoethyl)piperidin-4-yl)]hydrazino]ethyl-4-cyanothiazolidine bis-trifluoroacetate] | 20.41 | 40.80 | 44.09 | 54.81 | 0.523 ± 0.017 | 
6 | CS(=O)(=O)NC1CCC(N(N)CC(=O)N2CSCC2C#N)CC1 (stereo not drawn) [Compound No. 114, 3-[1-oxo-2-(1-(1-methanesulphonylamino-4-cyclohexyl)hydrazino)]ethyl-4-cyanothiazolidine hydrochloride] | 19.23 | 39.37 | 78.16 | 92.76 | 0.397 ± 0.02 | 
7 | N#CC1CSCN1C(=O)CN(N)C1CCCC1.O=C(O)C(F)(F)F (stereo not drawn) [Compound No. 19, 3-[1-Oxo-2-((1-Cyclopentyl)-hydrazino)]ethyl-4-cyano thiazolidine trifluoroacetate] |  |  |  | 94.55 | 1.46 ± 0.16 | 
8 | CCN(C)C(=O)N1CCC(N(N)CC(=O)N2CSCC2C#N)CC1.O=C(O)C(F)(F)F (stereo not drawn) [Compound No. 90, 3-[1-oxo-2-[1-(1-(N-ethylmethylaminocarbonyl)-piperidin-4-yl)]hydrazino]ethyl-4-cyanothiazolidine trifluoroacetate] | 21.81 | 42.93 | 62.91 | 82.75 | 1.23 ± 0.3 | 
9 | N#CC1CSCN1C(=O)CN(N)C1CCN(CC(=O)Nc2ccc(Cl)cc2)CC1 (stereo not drawn) [Compound No. 105, 3-[1-oxo-2-[1-(1-(2-oxo-2(4-chlorophenyl)aminoethyl)piperidin-4-yl)]hydrazino]ethyl-4-cyanothiazolidine bis-trifluoroacetate] | 24.03 | 35.27 | 49.25 | 49.63 |  | 
10 | CCNN(CC(=O)N1CSCC1C#N)C1CCC(NS(C)(=O)=O)CC1 (stereo not drawn) [Compound No. 97, 3-[1-oxo-2-[1-(1-(methanesulphonyl)aminocyclohexan-4-yl)-2-ethyl]hydrazino]ethyl-4-cyanothiazolidine] | 18.06 | 38.30 | 66.99 | 91.67 | 1.03 ± 0.07 | 
11 | CC(C)(C)C(=O)NC1CCC(N(N)CC(=O)N2CSCC2C#N)CC1.O=C(O)C(F)(F)F (stereo not drawn) [Compound No. 96, 3-[1-oxo-2-[1-(1-(trimethylacetamido)cyclohexan-4-yl)]hydrazino]ethyl-4-cyanothiazolidine trifluoroacetate] |  |  |  |  | 4 ± 0.144 | % Activity (antioxidant, DPPH) ([1]; Concentration 12.5 μM, 12.5 µM): 19.11%; % Activity (antioxidant, DPPH) ([1]; Concentration 25 μM, 25 µM): 34.43%; % Activity (antioxidant, DPPH) ([1]; Concentration 50 μM, 50 µM): 48.83%; % Activity (antioxidant, DPPH) ([1]; Concentration 100 μM, 100 µM): 63.26%
12 | CCNN(CC(=O)N1CSCC1C#N)C1CCN(C(=O)N2CCOCC2)CC1.O=C(O)C(F)(F)F (stereo not drawn) [Compound No. 89, 3-[1-oxo-2-[1-(1-(morpholinocarbonyl)-piperidin-4-yl)-2-ethyl]hydrazino]ethyl-4-cyanothiazolidine trifluoroacetate] | 10.37 | 20.74 | 36.94 | 55.07 | 0.985 ± 0.086 | 
13 | N#CC1CSCN1C(=O)CN(N)C1CCC(NC(=O)c2ccc(F)cc2)CC1.O=C(O)C(F)(F)F (stereo not drawn) [Compound No. 100] | 31.14 | 41.49 | 59.54 | 77.75 |  | 
14 | N#CC1CSCN1C(=O)CN(N)C1CCN(CC(=O)Nc2cccnc2Cl)CC1 (stereo not drawn) [compound 121] |  |  |  | 57.13 |  | 
15 | N#CC1CSCN1C(=O)CN(N)C1CCN(CC(=O)Nc2ccc3c(c2)OCCO3)CC1 (stereo not drawn) [Compound No. 104, 3-[1-oxo-2-[1-(1-(2-oxo-2(2,3dihydrobenzo(1,4)dioxan-6-yl)aminoethyl)piperidin-4-yl)]hydrazino]ethyl-4-cyano-thiazolidine bis-trifluoroacetate] | 19.40 | 36.23 | 42.20 | 50.14 |  | 
16 | N#CC1CSCN1C(=O)CN(N)C1CCN(CC(=O)Nc2ccc(Cl)cn2)CC1 (stereo not drawn) [Compound No. 115, 3-[-1-oxo-2-[1-(1-(−2-oxo-2-(5-chloropyridin-2-yl)aminoethyl)piperidine-4-yl)]hydrazino]ethyl-4-cyanothiazolidine trihydrochloride] |  |  |  |  |  | % Activity (antioxidant, DPPH) ([1]; Concentration 12.5 μM, trihydrochloride, 12.5 µM): 19.46%; % Activity (antioxidant, DPPH) ([1]; Concentration 25 μM, trihydrochloride, 25 µM): 26.94%; % Activity (antioxidant, DPPH) ([1]; Concentration 50 μM, trihydrochloride, 50 µM): 46.24%; % Activity (antioxidant, DPPH) ([1]; Concentration 100 μM, trihydrochloride, 100 µM): 75.84%
